In publication PMC5218591 (Bioorganic & medicinal chemistry, 2016):

Target: GPR88 (Homo sapiens, UniProt Q9GZN0)
Conditions: for agonist activity at GPR88 (in words): purified compounds, Lance cAMP assay; for fold less potent than 3: versus 3

Sequence of GPR88 (Q9GZN0 whole entry, species assumed): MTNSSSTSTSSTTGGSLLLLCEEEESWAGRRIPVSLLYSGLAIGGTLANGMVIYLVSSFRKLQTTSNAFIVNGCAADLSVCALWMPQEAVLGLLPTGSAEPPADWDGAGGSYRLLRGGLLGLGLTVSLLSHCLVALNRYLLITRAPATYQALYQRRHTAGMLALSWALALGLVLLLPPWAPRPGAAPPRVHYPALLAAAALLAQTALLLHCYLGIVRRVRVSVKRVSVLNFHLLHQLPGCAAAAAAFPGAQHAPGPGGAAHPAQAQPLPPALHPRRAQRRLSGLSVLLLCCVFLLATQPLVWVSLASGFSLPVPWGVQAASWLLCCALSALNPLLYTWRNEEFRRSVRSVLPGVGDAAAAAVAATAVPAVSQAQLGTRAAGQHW

## CCCC(C)COc1ccc([C@@H](NC(=O)[C@@H](CC)c2ccccc2)C(=O)OC)cc1 (stereo partly drawn) [Compound 13aw, Methyl (2R)-2-[4-(2-methylpentyloxy)phenyl]-2-[(S)-2-phenylbutanamido]acetate]
  agonist activity at GPR88 (in words): equipotent with 11a
Versus 13a
  fold more potent than 13a: 4.5 fold

## CCCC(C)COc1ccc([C@H](CO)NC(=O)Cc2ccccc2)cc1 (stereo partly drawn) [Compound 12a, N-{(1R)-2-Hydroxy-1-[4-(2-methylpentyloxy)phenyl]ethyl}-2-phenylacetamide]
  fold less potent than 3: approximately 2 fold

## CCCC(C)COc1ccc([C@@H](NC(=O)[C@@H](C)c2ccccc2)C(=O)OC)cc1 (stereo partly drawn) [Compound 11a, Methyl (2R)-2-[4-(2-methylpentyloxy)phenyl]-2-[(S)-2-phenylpropanamido]acetate]
  fold less potent than 3: approximately 2.5 fold

## CCCC(C)COc1ccc([C@@H](NC(=O)[C@@H](C)c2ccccc2)C(=O)O)cc1 (stereo partly drawn) [Compound 11b, (2R)-2-[4-(2-Methylpentyloxy)phenyl]-2-[(S)-2-phenylpropanamido]acetic acid]
  agonist activity at GPR88 (in words): completely inactive

## CCCC(C)COc1ccc([C@@H](NC(=O)Cc2ccccc2)C(=O)OC)cc1 (stereo partly drawn) [Compound 13a, Methyl (2R)-2-[4-(2-methylpentyloxy)phenyl]-2-(2-phenylacetamido)acetate]
Versus 11a
  fold less potent than 11a: 5 fold

## CCCC(C)COc1ccc([C@@H](NC(=O)C(C)C2CCCCC2)C(=O)OC)cc1 (stereo partly drawn) [Compound 12d, Methyl (2R)-2-[4-(2-methylpentyloxy)phenyl]-2-[(R,S)-2-cyclohexylpropanamido]-acetate]
  agonist activity at GPR88 (in words): completely inactive

## CCCC(C)COc1ccc([C@@H](NC(=O)[C@H](C)c2ccccc2)C(=O)OC)cc1 (some centres unmarked) [Compound 13az]
Library screen at 1 μM final, crude compounds, 11a = 100%, Figure 2
  agonist activity as percentage of TR-FRET signal of the control compound 11a: less potent than the (S)-isomer
